Results reported in patent US11401278B2, “Macrocyclic indole derivatives” (The Broad Institute, Inc., priority 2017, dated 2022).
Structures can show the parent of a compound that is named as a salt. Where two headings read alike, the source gives them in different places. One block for each compound: values may come before it.

Assays:
SUDHL5 = experiment: Induction of cytotoxicity (Assay 6), SUDHL5; conditions: read-out: Cytotox SUDHL5 [M] (median) IC50, CellTiter-Glo, 5 hours, SUDHL5
MCL-1 = MCL-1 (Homo sapiens (Human), UniProt Q07820, K194A/K197A/R201A); experiment: Protein-protein interaction assay MCL-1/Noxa BH3 peptide (MCL-1 assay, TR-FRET); type: binding; conditions: MBP-MCL-1 / Noxa BH3 peptide, median
Procedure, shortened: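 TR-FRET competition assay read at 665/620 nm, with a Noxa BH3 tracer peptide (1 nM) plus Eu-cryptate anti-MBP and XL665-streptavidin. Compounds (0.1 nM-20 μM, duplicates) were pre-equilibrated 10 min at 22° C with 1 nM MBP-MCL-1 (173-329) in Tris pH 7, NaCl, KF, DTT buffer, then incubated 1 h at 22° C and overnight at 4° C. IC50 came from 4-parameter regression.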

SUDHL10 [1] = experiment: Induction of caspase-3/7 activity (Assay 4), SUDHL10; type: cell-based; conditions: caspase-3/7 induction, median
Procedure, shortened: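 DLBCL cells were exposed to compounds for 3 hours at 37 °C, then caspase-3/7 activation was read with Caspase-Glo 3/7 reagent. After subtracting medium-only background, EC50s were derived with fixed C0=1 and the reference compound's maximal induction as plateau.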

SUDHL10 [2] = experiment: Induction of cytotoxicity (Assay 6), SUDHL10; conditions: read-out: Cytotox SUDHL10 [M] (median) IC50, CellTiter-Glo, 5 hours, SUDHL10
Method: Assay 6 Induction of Cytotoxicity Upon Treatment of Cells with Selected Compounds
Therefore, cytotoxicity assays were run in parallel in SUDHL5 and SUDHL10 cells.
The different cell lines were plated in culture medium (RPMI 1640 [GIBCO #22400-089] supplemented with 10% Fetal Bovine Serum) at a density of 3,300 cells in 30 μl/well in a sterile, solid black, flat bottom, polystyrene, TC-treated 384-well microplate (Corning #3571) using Multidrop Combi Reagent Dispenser. As a control, medium without cells was also added to the plate. Cells were incubated in a humidified incubator at 37° C. overnight. On the next day, the cells were treated with compounds (stock solution, 10 mM in DMSO) using the HP D300 Digital Dispenser in a concentration range of 3.3×10e-5 M (33 μM) to 5×10e-9 M (5 nM) in a single-dot curve with at least 16 dilutions and a DMSO concentration of 0.33%. Rim wells were excluded. The cells were incubated for 5 hours in a humidified incubator at 37° C. After this incubation, 30 μl of CellTiter-Glo® Luminescent Cell Viability reagent (Promega, G7573) was added to each well using the Multidrop Combi Reagent Dispenser, followed by 15 minutes incubation on a shaker at room temperature. Finally, luminescence was read at 0.1 ms, with a gain of 3000 using the PHERAstar FS microplate reader (BMG Labtech).

Chain of MCL-1 (Q07820 whole entry K194A/K197A/R201A, looked up): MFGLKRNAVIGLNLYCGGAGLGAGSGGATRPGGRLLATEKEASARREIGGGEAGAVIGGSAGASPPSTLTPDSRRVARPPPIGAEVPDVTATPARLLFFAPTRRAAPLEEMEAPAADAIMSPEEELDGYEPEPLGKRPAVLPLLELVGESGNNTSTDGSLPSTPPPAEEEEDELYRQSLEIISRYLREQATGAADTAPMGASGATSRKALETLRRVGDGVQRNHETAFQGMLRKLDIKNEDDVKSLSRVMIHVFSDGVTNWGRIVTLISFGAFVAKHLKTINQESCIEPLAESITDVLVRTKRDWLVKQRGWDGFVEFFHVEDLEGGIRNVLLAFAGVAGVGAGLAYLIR

SMILES: Cc1c2c(nn1C)CN(C)S(=O)(=O)CCCn1c(C(=O)O)c(CCCOc3cccc4cc(F)ccc34)c3ccc(F)c-2c31 (racemic) [Example 25, (rac)-13-Fluoro-1-(3-((6-fluoronaphthalen-1-yl)oxy)propyl)-8,11,12-trimethyl-5,6,9,11-tetrahydro-4H,8H-pyrazolo[3′,4′:4,5][1]thia[2,8]diazacycloundecino[6,7,8-hi]indole-2-carboxylic acid 7,7-dioxide]
IC50 (SUDHL5; Homo sapiens, SU-DHL-5, 5 h): 7.5e-07 M
IC50 (MCL-1): 0.0017 µM
EC50 (SUDHL10 [1]; Homo sapiens, SU-DHL10, 3 h): 1.5 µM
IC50 (SUDHL10 [2]; Homo sapiens, SU-DHL10, 5 h): 2e-06 M

SMILES: Cc1c2c(nn1C)CNS(=O)(=O)CCCn1c(C(=O)O)c(CCCOc3cccc4cc(F)ccc34)c3ccc(Cl)c-2c31 (single isomer, unassigned; enantiomer 1) [Example 51, 4-chloro-7-{3-[(6-fluoronaphthalen-1-yl)oxy]propyl}-2,3-dimethyl-13,13-dioxo-10,11,12,13,14,15-hexahydro-2H-13lambda^6-pyrazolo[3′,4′:4,5][1,2,8]thiadiazacycloundecino[6,7,8-hi]indole-8-carboxylic acid (Enantiomer 1)]
IC50 (SUDHL5): 5e-07 M
IC50 (MCL-1): 0.00096 µM
EC50 (SUDHL10 [1]; 3 hours): 0.49 µM
IC50 (SUDHL10 [2]): 9.8e-07 M

SMILES: CCc1c2c(nn1C)CN(C)S(=O)(=O)CCCn1c(C(=O)O)c(CCCOc3cccc4ccccc34)c3ccc(Cl)c-2c31 [Example 20, (rac)-13-Chloro-12-ethyl-8,11-dimethyl-1-(3-(naphthalen-1-yloxy)propyl)-5,6,9,11-tetrahydro-4H,8H-pyrazolo[3′,4′:4,5][1]thia[2,8]diazacycloundecino[6,7,8-hi]indole-2-carboxylic acid 7,7-dioxide]
IC50 (SUDHL5; Homo sapiens, SU-DHL-5, 5 h): 9.1e-07 M
IC50 (MCL-1): 0.0027 µM
EC50 (SUDHL10 [1]; Homo sapiens, SU-DHL10, 3 h): 2.1 µM
IC50 (SUDHL10 [2]; Homo sapiens, SU-DHL10, 5 h): 1.7e-06 M

SMILES: CCc1c2c(nn1C)CN(C)S(=O)(=O)CCCn1c(C(=O)O)c(CCCOc3cccc4cc(F)ccc34)c3ccc(F)c-2c31 (single isomer, unassigned; enantiomer 1) [Example 8, (+)-3-Ethyl-4-fluoro-7-{3-[(6-fluoronaphthalen-1-yl)oxy]propyl}-2,14-dimethyl-13,13-dioxo-10,11,12,13,14,15-hexahydro-2H-13λ^6-pyrazolo[3′,4′:4,5][1,2,8]thiadiazacycloundecino-[6,7,8-hi]indole-8-carboxylic acid (Enantiomer 1)]
IC50 (SUDHL5): 7.7e-07 M
IC50 (MCL-1): 0.0017 µM
EC50 (SUDHL10 [1]; 3 hours): 1 µM
IC50 (SUDHL10 [2]): 1.1e-06 M

Continued, in another order:

IC50 (MCL-1): 0.0056 µM
EC50 (SUDHL10 [1]; Homo sapiens, SU-DHL10, 3 h): 6.4 µM
SMILES: CCc1c2c(nn1C)CN(CCCN1CCOCC1)S(=O)(=O)CCCn1c(C(=O)O)c(CCCOc3cccc4ccccc34)c3cccc-2c31 (racemic) [Example 15, (rac)-12-Ethyl-11-methyl-8-(3-morpholinopropyl)-1-(3-(naphthalen-1-yloxy)propyl)-4,5,6,8,9,11-hexahydropyrazolo[3′,4′:4,5][1,2,8]thiadiazacycloundecino[6,7,8-hi]indole-2-carboxylic acid 7,7-dioxide 2,2,2-trifluoroacetic acid salt]
IC50 (SUDHL5; Homo sapiens, SU-DHL-5, 5 h): 2.9e-06 M
IC50 (SUDHL10 [2]; Homo sapiens, SU-DHL10, 5 h): 6.3e-06 M

IC50 (MCL-1): 0.0062 µM
EC50 (SUDHL10 [1]; Homo sapiens, SU-DHL10, 3 h): 14 µM
SMILES: Cc1c2c(nn1C)CN(CCN1CCOCC1)S(=O)(=O)CCCn1c(C(=O)O)c(CCCOc3cccc4ccccc34)c3cccc-2c31 (racemic) [Example 1, (rac)-2,3-Dimethyl-14-[2-(morpholin-4-yl)ethyl]-7-{3-[(naphthalen-1-yl)oxy]propyl}-13,13-dioxo-10,11,12,13,14,15-hexahydro-2H-13λ^6-pyrazolo[3′,4′:4,5][1,2,8]thiadiazacycloundecino-[6,7,8-hi]indole-8-carboxylic acid]
IC50 (SUDHL5; Homo sapiens, SU-DHL-5, 5 h): 6.7e-06 M
IC50 (SUDHL10 [2]; Homo sapiens, SU-DHL10, 5 h): 1.3e-05 M
